Values quoted from earlier work, collected in patent US20080161248A1, “Methods and Compositions for Therapeutic Treatment” (priority 2006, published 2008).

What was measured:
[1] = US heart transplantation study; cited from earlier work
murine or human T cells = settings: cited from earlier work
[2] = mice, mdr1 gene depleted; cited from earlier work
[3] = kidney transplant patients, cited from earlier work

SMILES: C=CC[C@@H]1/C=C(\C)C[C@H](C)C[C@H](OC)C2O[C@@](O)(C(=O)C(=O)N3CCCC[C@H]3C(=O)O[C@H](/C(C)=C/[C@@H]3CC[C@@H](O)[C@H](OC)C3)[C@H](C)[C@@H](O)CC1=O)[C@H](C)C[C@@H]2OC (relative stereo) [Prograf, [3S-[3R[E(1S*,3S*,4S*)], 4S*,5R*,8S*,9E,12R*,14R*,15S*,16R*,18S*,19S*,26aR*]]-,6,8,11,12,13,14,15,16,17,18,19,24,25,26,26a-hexadecahydro-5,19-dihydroxy-3-[2-(4-hydroxy-3-methoxycyclohexyl)-1-methylethenyl]-14,16-dimethoxy-4,10,12,18-tetramethyl-8-(2-propenyl)-15,19-epoxy-3H-pyrido[2,1-c][1,4]oxaazacyclotricosine-1,7,20,21 (4H,23H)-tetrone, monohydrate]
- Other targeted treatment-emergent adverse events (Cushingoid features, impaired wound healing, hyperkalemia, Candida infection, CMV infection/syndrome), rate [1]: less than 15%
- concentrations inhibiting proliferation of stimulated T cells (murine or human T cells; T cells stimulated by specific antigens, antibodies to TCR/CD3 or mitogenic lectins): subnanomolar
- potency relative to cyclosporin A (CsA) (murine or human T cells; higher potency than CsA, disrupting calcium signaling leading to lymphokine production): 50-100 fold
- concentration in the brain [2]: markedly increased
- Adverse event: Abdominal Pain [3]: 33%
- Adverse event: Anemia [3]: 30%
- Adverse event: Arthralgia [3]: 25%
- Adverse event: Asthenia [3]: 34%
- Adverse event: Back Pain [3]: 24%
- Adverse event: Chest pain [3]: 19%
- Adverse event: Constipation [3]: 35%
- Adverse event: Cough Increased [3]: 18%
- Adverse event: Creatinine Increased [3]: 45%
- Adverse event: Diabetes Mellitus [3]: 24%
- Adverse event: Diarrhea [3]: 44%
- Adverse event: Dizziness [3]: 19%
- Adverse event: Dyspepsia [3]: 28%
- Adverse event: Dyspnea [3]: 22%
- Adverse event: Edema [3]: 18%
- Adverse event: Fever [3]: 29%
- Adverse event: Headache [3]: 44%
- Adverse event: Hyperglycemia [3]: 22%
- Adverse event: Hyperkalemia [3]: 31%
- Adverse event: Hyperlipemia [3]: 31%
- Adverse event: Hypertension [3]: 50%
- Adverse event: Hypokalemia [3]: 22%
- Adverse event: Hypomagnesemia [3]: 34%
- Adverse event: Hypophosphatemia [3]: 49%
- Adverse event: Infection [3]: 45%
- Adverse event: Insomnia [3]: 32%
- Adverse event: Leukopenia [3]: 15%
- Adverse event: Nausea [3]: 38%
- Adverse event: Pain [3]: 32%
- Adverse event: Paresthesia [3]: 23%
- Adverse event: Peripheral Edema [3]: 36%
- Adverse event: Pruritus [3]: 15%
- Adverse event: Rash [3]: 17%
- Adverse event: Urinary Tract Infection [3]: 34%
- Adverse event: Vomiting [3]: 29%
- Adverse event: Tremor ([3]; monohydrate): 54%
